In assay [1] the target is Adenosine receptors; A1 & A2a (Rattus norvegicus) (UniProt P25099+P30543). The assay can be described thus: Ratio of binding affinity against adenosine A1 receptor and adenosine A2a receptor. Type of assay: protein assay.
The target in the next assay is Adenosine receptor A2a (Rattus norvegicus, UniProt P30543). The assay can be described thus: Inhibition of A2a agonist [3H]-CGS- 21680 binding to rat striatal membranes. The assay is classed as cell membranes, Membrane.
Adenosine receptor A2a, sequence (P30543 whole entry): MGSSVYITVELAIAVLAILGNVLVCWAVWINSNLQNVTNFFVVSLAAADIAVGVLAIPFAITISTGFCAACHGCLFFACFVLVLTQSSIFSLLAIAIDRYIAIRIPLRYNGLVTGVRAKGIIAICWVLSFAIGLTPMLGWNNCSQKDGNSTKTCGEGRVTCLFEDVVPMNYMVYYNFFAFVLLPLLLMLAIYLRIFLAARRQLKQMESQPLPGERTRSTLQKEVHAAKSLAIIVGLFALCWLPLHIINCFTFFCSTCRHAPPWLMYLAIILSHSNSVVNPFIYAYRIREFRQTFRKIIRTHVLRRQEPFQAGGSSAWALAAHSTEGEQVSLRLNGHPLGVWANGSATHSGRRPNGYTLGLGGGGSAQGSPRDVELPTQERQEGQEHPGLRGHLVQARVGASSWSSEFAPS
For the next assay, the target named is T1, Adenosine receptor A1 (Rattus norvegicus, UniProt P25099).
T1 sequence (P25099 whole entry): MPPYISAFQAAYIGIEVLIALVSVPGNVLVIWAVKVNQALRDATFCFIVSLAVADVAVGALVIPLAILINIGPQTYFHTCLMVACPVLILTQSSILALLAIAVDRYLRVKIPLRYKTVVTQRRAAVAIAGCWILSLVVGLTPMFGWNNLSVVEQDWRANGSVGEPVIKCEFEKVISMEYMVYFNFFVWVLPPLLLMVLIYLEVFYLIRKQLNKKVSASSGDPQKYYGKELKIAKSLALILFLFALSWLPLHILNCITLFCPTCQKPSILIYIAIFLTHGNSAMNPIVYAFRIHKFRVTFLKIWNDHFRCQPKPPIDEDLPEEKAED
The assay can be described thus: Inhibition of A1 agonist (R)-[3H]N 6-(phenylisopropyl) adenosine binding to membranes from rat whole brain.

Adenosine receptors; A1 & A2a (Rattus norvegicus), sequence (P30543 whole entry, looked up, one chain of several): as the sequence (P30543 whole entry) above

As for `CCCCC(Sc1nc(NC)c2cnn(-c3ccccc3)c2n1)C(N)=O` (centres undefined), the Ratio in assay [1] amounted to 331.
One may read the Ki as the equilibrium dissociation constant of an inhibitor or competing ligand from its target. High values mean a looser hold on the target, low ones a stronger hold on the target. Consider `CCCSc1nc(SC(CC)C(N)=O)nc2c1cnn2-c1ccccc1` (centres undefined), for which the Ratio in assay [1] was 13000. Also, the Ki was above 38500 nM at Adenosine receptor A2a and 29.5 nM on Adenosine receptor A1.

The values are drawn from ChEMBL document CHEMBL1128971, “Pyrazolo[3,4-d]pyrimidines: C4, C6 substitution leads to adenosine A1 receptor selectivity” (Bioorg Med Chem Lett, 1996).
